# How the values were obtained:
# [1] = Moisture loss, skin barrier index and composite index by transdermal moisture loss meter (Tewameter); format: in vivo, mice
# Procedure: Colchicine was continuously applied on back and ear skin areas of laboratory mice at concentration of 0.05% (w/w) twice a week for 4 weeks or more, and then a moisture loss and skin barrier and composite indexes were measured by a transdermal moisture loss meter (Tewameter).
# The experiment results are shown in FIG. 2, and were compared with an experiment animal group with no colchicine applied.
# interleukin-4 (IL-4) = test: Inflammatory cytokine expression in skin tissue of oxazolone model (qPCR), IL-4; format: in vivo, mouse; details: group treated with both colchicine (0.05%) and oxazolone, compared with oxazolone treatment, FIG. 5
# Procedure: (§1) Specifically, 150 μl of 3% 4-ethoxymethylene-2-phenyl-2-oxazolin-5-one (oxazolone) was applied on an abdominal skin of a 6-week-old laboratory animal to induce an immune response, and 20 μl of the same compound diluted to 0.1% was applied on the ear of a laboratory animal 3 times a week (total 6 times) to induce a skin disease. The ear of the laboratory animal was treated with 20 μl of the colchicine according to the present invention at a concentration of 0.05% 3 times a week (total 6 times). A negative control group treated with only ethanol which was a solvent and a positive control group treated with only oxazolone were also reflected in the experiment. The number of mice in each experiment group was maintained at 10 or more and the experiment was repeated 3 times.
# (§2) After completing the application experiment of Example 2, a skin tissue was collected from each mouse and crushed with a tissue crusher to extract RNA. The crushed tissue powder was dissolved in a Trizol reagent solution (Sigma) and RNA was extracted using a RNeasy mini kit (Qiagen). The extracted RNA was reverse-transcribed to cDNA using ImProm-II™ Reverse Transcription kit (Promega), and then a cytokine degree present in the skin tissue was measured by a quantitative PCR (qPCR) method using CFX96™ Real-Time PCR Detection System (Bio-Rad). […]
# filaggrin = test: Filaggrin expression in mouse skin tissue after colchicine application (qPCR); format: in vivo, mice; details: 0.04% (w/w) and 0.1% (w/w) applied on back and ear skin twice a week for 4 weeks or more, FIG. 1
# Procedure: Specifically, colchicine was continuously applied on back and ear skin areas of laboratory mice at a low concentration of 0.04% (w/w) and at a high concentration of 0.1% (w/w) twice a week for 4 weeks or more. After completing the application experiment, a skin tissue was collected from each mouse and crushed with a tissue crusher to extract RNA. The crushed tissue powder was dissolved in a Trizol reagent solution (Sigma) and RNA was extracted using a RNeasy mini kit (Qiagen). The extracted RNA was reverse-transcribed to cDNA using IMPROM-II™ Reverse Transcription kit (Promega), and then an amount of filaggrin present in the skin tissue was measured by a quantitative PCR (qPCR) method using CFX96™ Real-Time PCR Detection System (Bio-Rad).
# [2] = test system: allergic skin disease model (atopic dermatitis model) mouse derived by oxazolone; test: Oxazolone-derived allergic skin disease (atopic dermatitis) model mouse: naked-eye observation and Hematoxylin and Eosin staining of ear skin; format: in vivo
# Procedure: as §1
# In addition, for pathological observation of skin after completing the application, an ear skin tissue of each mouse was collected and stained with Hematoxylin and Eosin, and the results are shown in FIG. 4.
# interleukin-13 (IL-13) = test: Inflammatory cytokine expression in skin tissue of oxazolone model (qPCR), IL-13; format: in vivo, mouse; details: group treated with both colchicine (0.05%) and oxazolone, compared with oxazolone treatment, FIG. 5
# Procedure: as §1, §2
# [3] = 0.05% (w/w) on back and ear skin twice a week for 4 weeks or more, Tewameter, vs group with no colchicine applied, FIG. 2
# [4] = 20 μl of 0.05% colchicine on ear, total 6 times, with oxazolone treatment, H&E staining of ear skin, FIG. 4
compound,measurement,setting,value
COc1cc2c(c(OC)c1OC)-c1ccc(OC)c(=O)cc1[C@@H](NC(C)=O)CC2 [colchicine],skin barrier index,[1]; [3],greatly increased
same,skin composite index,[1]; [3],greatly increased
same,skin moisture loss,[1]; [3],decreased
same,side effect with long-term application,[1]; skin application to mice for 4 weeks or more,without any side effect
same,expression level of IL-4 in skin tissue,interleukin-4 (IL-4),≤ 50%
same,expression amount of filaggrin,filaggrin,increased an expression amount of filaggrin concentration-dependently
same,skin condition observed with the naked eye (ear),"[2]; 20 μl of 0.05% colchicine on ear 3 times a week (total 6 times), simultaneously with oxazolone, FIG. 3",very similar to that of a normal group treated with only a solvent
same,epithelial thickness,[2]; [4],decreased to a degree very similar to the normal case
same,total skin thickness,[2]; [4],decreased to a degree very similar to the normal case
same,skin abnormal symptom,"[2]; control group treated with only colchicine, H&E staining of ear skin",not detected
same,expression level of IL-13 in skin tissue,interleukin-13 (IL-13),≤ 50%

# — patent publication US20220151959A1, “METHOD FOR TREATING ALLERGIC SKIN DISEASE OR PRURITUS CUTANEOUS” (KOREA RESEARCH INSTITUTE OF BIOSCIENCE AND BIOTECHNOLOGY, priority 2019, published 2022)
